According to publication PMC9841524, “Structure-Based Rational Design of Small α-Helical Peptides with Broad-Spectrum Activity against Multidrug-Resistant Pathogens” (Journal of Medicinal Chemistry, 2022):
Where two headings read alike, the source gives them in different places. Where no end group is shown, it is not given here.

Key:
[1] = system: K. pneumoniae (ATCCBAA-1705); test: MIC, standard microtiter dilution (CLSI); type: cell-based, Klebsiella pneumoniae; conditions: broth microdilution (CLSI), CAMHB, 37 °C, 24 h
Description: (§1) Description of the characteristics and growth conditions of various bacterial strains used in the study are provided in the Supporting Information (Table S3). Antibacterial susceptibility testing was carried out using a standard microtiter dilution method recommended by the clinical and laboratory standard institute (CLSI) and measured as a minimum inhibitory concentration (MIC), the lowest peptide concentration that inhibited bacterial growth. Briefly, the overnight grown cultures in the recommended broth for each bacterial strain were diluted in cation-adjusted Mueller Hinton Broth (CAMHB) to give an inoculum of 10^6 colony-forming units (CFU)/mL. A 2-fold serially diluted test peptide solution (100 μL) was added to the microtiter plates. After adding bacterial suspension (100 μL), the plates were incubated at 37 °C for 24 h, and the MICs were determined. The same protocol was used to determine the MICs in the presence of salts and serum except using the media supplemented with various cationic salts (150 mM NaCl, 4.5 mM KCl, 6 mM NH4Cl, 1 mM MgCl2, and 2 mM CaCl2) or 25% FBS. The data was acquired from three independent assays performed in triplicate.
(§2) The bacterial strains employed in this study were obtained from the American Type Culture Collection (ATCC). Each strain was propagated as recommended by the ATCC, and each strain was stored as a frozen glycerol stock at -80°C. A bacterial colony was grown on the appropriate agar as indicated in Table S1 and was used to inoculate the appropriate broth. The culture was incubated at the appropriate conditions, as mentioned in Table S1. Following the incubation, the culture was diluted to an optical density 625 nm (OD625) of 0.1 in cation adjusted Mueller Hinton Broth (CAMHB), which is equivalent to 1 × 10^8 CFU/mL. The culture was further diluted to 1 × 10^6 CFU/mL, which was used to conduct the MIC determination assay. For the S. pneumoniae strains, CAMHB + 2.5% lysed horse blood was required for the assay. The strains with their […]
(§3) Table S3. Description of the characteristics and growth conditions of various bacterial strains

[2] = system: MRSA (ATCC BAA-1556); conditions: broth microdilution (CLSI), CAMHB, 37 °C, 24 h
Description: as §1, §2, §3

[3] = system: E. coli (ATCC 25922); conditions: broth microdilution (CLSI), CAMHB, 37 °C, 24 h
Description: as §1, §2, §3

[4] = system: S. aureus (ATCC 29213); test: MIC, standard microtiter dilution (CLSI); type: cell-based; conditions: broth microdilution (CLSI), CAMHB, 37 °C, 24 h
Description: as §1, §2, §3

[5] = system: P. aeruginosa (ATCC 27883); test: MIC, standard microtiter dilution (CLSI); type: cell-based, Pseudomonas aeruginosa; conditions: broth microdilution (CLSI), CAMHB, 37 °C, 24 h
Description: as §1, §2, §3

[6] = system: human red blood cells (hRBCs); test: Hemolytic assay; type: cell-based; conditions: 2 h, 37 °C
Description: The hemolytic activity of all peptides (1a–8d) was determined using hRBC. The assay was conducted by adding 75 μL of 2-fold serially diluted peptides to 75 μL of hRBC suspension (4% in PBS). The plates were incubated for 2 h at 37 °C without agitation. In order to determine the hemolysis at each tested concentration of peptides, the plate was centrifuged, and 100 μL of the supernatant was transferred to another 96-well plate to determine hemoglobin release spectrophotometrically at 567 nm. Percent hemolysis was calculated by the following formula [drawing 1] where A represents the absorbance of the peptide sample at 567 nm and A0 and At represent zero percent and 100% hemolysis determined in phosphate buffer saline and 1% Triton X-100, respectively.

[7] = 10^6 CFU/mL, highest MIC of three independent experiments in triplicate
[8] = hRBC suspension 4% in PBS, hemoglobin release at 567 nm, 1% Triton X-100 = 100%
[9] = value in parentheses (μM), hRBC 4% in PBS, 567 nm

Substance	MIC, K. pneumoniae (ATCCBAA-1705) [1, 7]	MIC, K. pneumoniae (ATCCBAA-1705) ([1]; value in parentheses (μM))	MIC, MRSA (ATCC BAA-1556) [2, 7]	MIC, MRSA (ATCC BAA-1556) ([2]; value in parentheses (μM))	MIC, E. coli (ATCC 25922) [3, 7]	MIC, E. coli (ATCC 25922) ([3]; value in parentheses (μM))	MIC, S. aureus (ATCC 29213) [4, 7]	MIC, S. aureus (ATCC 29213) ([4]; value in parentheses (μM))	MIC, P. aeruginosa (ATCC 27883) [5, 7]	MIC, P. aeruginosa (ATCC 27883) ([5]; value in parentheses (μM))	HC50 (concentration at which 50% hemolysis was observed) [6, 8]	HC50 (concentration at which 50% hemolysis was observed) [6, 9]
ARRWWRRW-NH2 [2e]	> 100 µg/mL	> 78.65 µM	100 µg/mL	> 78.65 µM	> 100 µg/mL	> 78.65 µM	100 µg/mL	78.65 µM	> 100 µg/mL	> 78.65 µM	> 500 µg/mL	> 393.23 µM
AWWRRAWRR-NH2 [3f]	> 100 µg/mL	> 74.48 µM	> 100 µg/mL	> 74.48 µM	> 100 µg/mL	> 74.48 µM	> 100 µg/mL	> 74.48 µM	> 100 µg/mL	> 74.48 µM	> 500 µg/mL	> 372.42 µM
Ac-RWIRRWIRWWR-NH2 [5e]	100 µg/mL	55.21 µM	50 µg/mL	27.61 µM	100 µg/mL	55.21 µM	50 µg/mL	27.61 µM	50 µg/mL	27.61 µM	60 µg/mL	33.13 µM
Ac-RWLRRWLRWWR-NH2 [5f]	50 µg/mL	27.61 µM	12.5 µg/mL	6.90 µM	50 µg/mL	27.61 µM	12.5 µg/mL	6.90 µM	25 µg/mL	13.80 µM	65 µg/mL	35.89 µM
H-AAWRRWWRRA-NH2 [4h]	> 100 µg/mL	> 70.74 µM	> 100 µg/mL	> 70.74 µM	> 100 µg/mL	> 70.74 µM	> 100 µg/mL	> 70.74 µM	> 100 µg/mL	> 70.74 µM	> 500 µg/mL	> 353.69 µM
H-RAWRRAWRAW-NH2 [4a]	> 100 µg/mL	> 70.74 µM	> 100 µg/mL	> 70.74 µM	> 100 µg/mL	> 70.74 µM	> 100 µg/mL	> 70.74 µM	> 100 µg/mL	> 70.74 µM	> 500 µg/mL	> 353.69 µM
H-RAWRRWARAW-NH2 [4d]	> 100 µg/mL	> 70.74 µM	> 100 µg/mL	> 70.74 µM	> 100 µg/mL	> 70.74 µM	> 100 µg/mL	> 70.74 µM	> 100 µg/mL	> 70.74 µM	> 500 µg/mL	> 353.69 µM
H-RAWRRWWARA-NH2 [4g]	> 100 µg/mL	> 70.74 µM	> 100 µg/mL	> 70.74 µM	> 100 µg/mL	> 70.74 µM	> 100 µg/mL	> 70.74 µM	> 100 µg/mL	> 70.74 µM	> 500 µg/mL	> 353.69 µM
H-RWWRRWR-NH2 [1e]	> 100 µg/mL	> 83.30 µM	100 µg/mL	83.30 µM	> 100 µg/mL	> 83.30 µM	100 µg/mL	83.30 µM	> 100 µg/mL	> 83.30 µM	> 500 µg/mL	> 416.52 µM
RAARRWARWWR-NH2 [5a]	> 100 µg/mL	> 63.70 µM	100 µg/mL	63.70 µM	> 100 µg/mL	> 63.70 µM	100 µg/mL	63.70 µM	> 100 µg/mL	> 63.70 µM	> 500 µg/mL	> 318.50 µM
RAWRRWWRA-NH2 [3b]	> 100 µg/mL	> 74.48 µM	> 100 µg/mL	> 74.48 µM	> 100 µg/mL	> 74.48 µM	> 100 µg/mL	> 74.48 µM	> 100 µg/mL	> 74.48 µM	> 500 µg/mL	> 372.42 µM
RAWRRWWRAA-NH2 [4b]	> 100 µg/mL	> 70.74 µM	> 100 µg/mL	> 70.74 µM	> 100 µg/mL	> 70.74 µM	> 100 µg/mL	> 70.74 µM	> 100 µg/mL	> 70.74 µM	> 500 µg/mL	> 353.69 µM
RRWRRWW-NH2 [1d]	> 100 µg/mL	> 83.30 µM	100 µg/mL	83.30 µM	> 100 µg/mL	> 83.30 µM	100 µg/mL	83.30 µM	> 100 µg/mL	> 83.30 µM	> 500 µg/mL	> 416.52 µM
